Data reported in patent US8076482B2, “3,3′-spiroindolinone derivatives” (Hoffmann-La Roche Inc., priority 2009, dated 2011).

Target: interaction between p53 and MDM2 proteins (Homo sapiens, UniProt Q00987)
Assay: HTRF assay of inhibition of the p53-MDM2 interaction (GST-MDM2 / biotinylated p53 peptide)
Type: binding
Conditions: 0.02% BSA
Protocol: The ability of the compounds to inhibit the interaction between p53 and MDM2 proteins was measured by an HTRF (homogeneous time-resolved fluorescence) assay in which recombinant GST-tagged MDM2 binds to a peptide that resembles the MDM2-interacting region of p53 (Lane et al.). Binding of GST-MDM2 protein and p53-peptide (biotinylated on its N-terminal end) is registered by the FRET (fluorescence resonance energy transfer) between Europium (Eu)-labeled anti-GST antibody and streptavidin-conjugated Allophycocyanin (APC).
Test is performed in black flat-bottom 384-well plates (Costar) in a total volume of 40 uL containing: 90 nM biotinylate peptide, 160 ng/ml GST-MDM2, 20 nM streptavidin-APC (PerkinElmerWallac), 2 nM Eu-labeled anti-GST-antibody (PerkinElmerWallac), 0.2% bovine serum albumin (BSA), 1 mM dithiothreitol (DTT) and 20 mM […] (TBS) buffer as follows: Add 10 uL of GST-MDM2 (640 ng/ml working solution) in reaction buffer to each well. Add 10 uL diluted compounds (1:5 dilution in reaction buffer) to each well, mix by shaking. Add 20 uL biotinylated p53 peptide (180 nM working solution) in reaction buffer to each well and mix on shaker. Incubate at 37° C. for 1 h. Add 20 uL streptavidin-APC and Eu-anti-GST antibody mixture (6 nM Eu-anti-GST and 60 nM streptavidin-APC working solution) in TBS buffer with 0.2% BSA, shake at room temperature for 30 minutes and read using a TRF-capable plate reader at 665 and 615 nm (Victor 5, Perkin ElmerWallac).

interaction between p53 and MDM2 proteins, sequence (Q00987 whole entry): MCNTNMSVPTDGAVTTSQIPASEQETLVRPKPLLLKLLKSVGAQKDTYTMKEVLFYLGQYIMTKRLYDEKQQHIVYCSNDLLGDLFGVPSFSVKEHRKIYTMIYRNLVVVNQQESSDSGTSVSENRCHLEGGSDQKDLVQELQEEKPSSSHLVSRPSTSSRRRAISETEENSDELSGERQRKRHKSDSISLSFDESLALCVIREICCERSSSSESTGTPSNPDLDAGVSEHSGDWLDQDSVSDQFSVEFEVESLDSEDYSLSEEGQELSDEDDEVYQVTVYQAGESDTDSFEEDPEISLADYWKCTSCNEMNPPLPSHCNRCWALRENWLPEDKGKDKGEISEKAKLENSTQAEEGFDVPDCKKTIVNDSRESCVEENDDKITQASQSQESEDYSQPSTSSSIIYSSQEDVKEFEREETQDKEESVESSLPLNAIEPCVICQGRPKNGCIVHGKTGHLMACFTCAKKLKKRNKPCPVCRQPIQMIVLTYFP

Row | Compound | IC50 [nM]
1 | COC(=O)C1(Oc2ccc(Cl)cc2[C@H]2CC(=S)N[C@@H](c3cc(F)ccc3C)[C@]23C(=O)Nc2cc(Cl)ccc23)CCC1 (racemic) [Example 50, racemic (2′S, 3S, 4′R)-6-chloro-4′-[5-chloro-2-(1-methoxycarbonyl-cyclobutoxy)-phenyl]-2′-(5-fluoro-2-methyl-phenyl)-6′-thioxo spiro[3H-indole-3,3′-piperidine]-2(1H)-one] | 4330
2 | COc1cc(F)c(Cl)cc1[C@@H]1CC(=S)N[C@H](c2cc(F)ccc2C)[C@@]12C(=O)Nc1cc(Cl)ccc12 (racemic) [Example 62] | 1090
3 | CCC(CC)(Oc1ccc(Cl)cc1[C@H]1CC(=S)N[C@@H](c2cc(F)ccc2C)[C@]12C(=O)Nc1cc(Cl)ccc12)C(=O)NS(C)(=O)=O [Example 24, chiral (2′S, 3S, 4′R)-6-chloro-4′-[5-chloro-2-(2-methanesulfonylamino-1,1-diethyl-2-oxo-ethoxy)-phenyl]-2′-(5-fluoro-2-methyl-phenyl)-6′-thioxo spiro[3H-indole-3,3′-piperidine]-2(1H)-one] | 22

More lines, now with the values ahead:

Row | IC50 [nM] | Compound
4 | 607 | CONC(=O)C(C)(C)Oc1ccc(Cl)cc1[C@H]1CC(=S)N[C@@H](c2cc(F)ccc2C)[C@]12C(=O)Nc1cc(Cl)ccc12 (racemic) [Example 73, racemic (2′S, 3S, 4′R)-6-chloro-4′-[5-chloro-2-(1-methoxycarbamoyl-1-methyl-ethoxy)-phenyl]-2′-(5-fluoro-2-methyl-phenyl)-6′-thioxo spiro[3H-indole-3,3′-piperidine]-2(1H)-one]
5 | 50 | Cc1ccc(F)cc1[C@@H]1NC(=S)C[C@H](c2cc(Cl)ccc2OC(C)(C)C(=O)O)[C@@]12C(=O)Nc1cc(Cl)ccc12 [Example 8, chiral (2′S, 3S, 4′R)-6-chloro-4′-[5-chloro-2-(1-hydroxycarbonyl-1-methyl-ethoxy)-phenyl]-2′-(5-fluoro-2-methyl-phenyl)-6′-thioxo spiro[3H-indole-3,3′-piperidine]-2(1H)-one]
